Kb and melting point data for 13 compounds are collected here from patent US10577332B2, “Tetrazole derivatives” (Hoffmann-La Roche Inc., priority 2015, dated 2020).

The target of one series is T1, human EAAT3 (Homo sapiens, UniProt P43005).
T1 construct: expressed in transfected cells
T1 sequence (P43005 1-524): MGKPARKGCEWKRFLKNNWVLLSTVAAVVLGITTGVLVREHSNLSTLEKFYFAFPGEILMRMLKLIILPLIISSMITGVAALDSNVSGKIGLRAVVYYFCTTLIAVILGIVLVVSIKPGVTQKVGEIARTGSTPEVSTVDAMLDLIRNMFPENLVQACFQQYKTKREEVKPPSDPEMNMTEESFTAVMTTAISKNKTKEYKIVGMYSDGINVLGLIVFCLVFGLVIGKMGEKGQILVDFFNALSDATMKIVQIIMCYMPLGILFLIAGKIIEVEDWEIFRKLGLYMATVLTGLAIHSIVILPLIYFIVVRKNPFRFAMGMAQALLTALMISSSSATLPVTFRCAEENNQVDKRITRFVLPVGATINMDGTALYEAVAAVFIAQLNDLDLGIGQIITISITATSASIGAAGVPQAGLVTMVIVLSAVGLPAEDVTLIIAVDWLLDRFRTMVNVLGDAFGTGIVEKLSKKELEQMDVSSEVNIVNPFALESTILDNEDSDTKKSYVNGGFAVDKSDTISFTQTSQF
Description: FLIPR Membrane Potential (FMP) assay. The class given is cell-based. The following applies: HEK-293 cells stably expressing human EAAT3; antagonist applied 15 min before L-glutamate at EC80; Kb by Cheng-Prusoff from IC50. Here is the method:
The FLIPR Membrane Potential (FMP) Assay
HEK-293 cells stably expressing human EAAT3 were seeded at 55 000 cells/well in growth medium (DMEM glutamate free (Invitrogen 11960-044), 1% Pen Strep (10 ml/l GIBCO BRL No 15140-023), 10% FCS non dialysed heat inactivated, 5 mg/l puromycin) in poly-D-lysine treated 96-well black microtiter plates with clear-bottom. After 24 h, the growth medium was removed and 100 μl/well of Krebs buffer (140 mM NaCl, 4.7 mM KCl, 2.5 mM CaCl2, 1.2 mM MgCl2, 11 mM HEPES, 10 mM D-glucose, pH=7.4) added. The cells were then loaded by adding 100 μl/well FMP assay dye (FLIPR Membrane Potential assay reagent, Molecular Devices). The 96-well plates were then incubated at 37° C. for 1 h. The depolarization of the cells will cause more dye to enter in the cells, where it will bind to intracellular proteins and lipids and cause an increase in the fluorescence signal. Antagonist potency at human EAAT3 was determined by using L-glutamate as agonist at a concentration which gives 80% of the maximum response. The antagonists were applied 15 min before the application of the agonist L-glutamate. The assays were performed at room temperature and measurements done by using a Fluorometric Imaging Plate Reader (FLIPR, Molecular Devices) and filter #2. Responses were measured as peak increase in fluorescence minus basal (i.e. fluorescence without addition of L-glutamate). Kb was determined using the Cheng-Prusoff equation Kb=IC50/[1+(A/EC50)], where IC50 is the concentration of the antagonist producing 50% inhibition, A is the concentration of the agonist against which the IC50 is being determined (at EC80) and EC50 is the concentration of the agonist producing 50% […].

For orientation: Kb means the equilibrium dissociation constant of an antagonist, usually derived from a functional assay. A higher Kb goes with a less potent antagonist. By melting point is commonly meant the temperature of the solid-liquid transition.

In turn, `Cc1ccc(-c2cc(C(=O)NC3(C)CCS(=O)(=O)C3)cc(-n3nnnc3C3CC3)c2)cc1` (racemic) [Example 33, (RS)-3-(5-Cyclopropyltetrazol-1-yl)-N-(3-methyl-1,1-dioxothiolan-3-yl)-5-(4-methylphenyl)-benzamide] had a melting point of 130.5 °C. Also, the Kb at human EAAT3 came out at 300 nM.
As for `CC(C)c1nnnn1-c1cc(C(=O)NC(C)(C)C(F)(F)F)cc(-c2ccc(Cl)cc2)c1` [Example 52, 3-(4-Chlorophenyl)-5-(5-propan-2-yltetrazol-1-yl)-N-(1,1,1-trifluoro-2-methylpropan-2-yl)-benzamide], the melting point worked out at 90 °C. This compound also registered a Kb on human EAAT3 of 340 nM.
Take `CC(C)(C)NC(=O)c1cc(-c2ccc(Cl)cc2)cc(-n2cnnn2)c1` [Example 12, N-tert-Butyl-3-(4-chlorophenyl)-5-(tetrazol-1-yl)-benzamide]: the melting point is 199 °C. The compound also returned a Kb at human EAAT3 of 350 nM.
Consider `CC1(NC(=O)c2cc(-c3ccc(F)cc3)cc(-n3cnnn3)c2)CCS(=O)(=O)C1` (racemic) [Example 4, (RS)-3-(4-Fluorophenyl)-N-(3-methyl-1,1-dioxothiolan-3-yl)-5-(tetrazol-1-yl)-benzamide], for which the melting point was 146.5 °C. On human EAAT3, this compound came in with a Kb of 460 nM.
The compound `CC(C)(C)NC(=O)c1cc(-c2ccc(F)cc2)cc(-n2nnnc2C2CC2)c1` [Example 69, N-tert-Butyl-3-(5-cyclopropyltetrazol-1-yl)-5-(4-fluorophenyl)-benzamide] came in with a melting point of 82 °C. This compound showed a Kb on human EAAT3 of 150 nM.
Regarding `Cc1ccc(-c2cc(C(=O)NC(C)(C)C)cc(-n3nnnc3C3CC3)c2)cc1` [Example 29, N-tert-Butyl-3-(5-cyclopropyltetrazol-1-yl)-5-(4-methylphenyl)-benzamide], the melting point was determined as 91 °C. On human EAAT3, this compound gave a Kb of 200 nM.
The compound `CC(C)(C)c1nnnn1-c1cc(C(=O)NC(C)(C)C2CC2)cc(-c2ccc(Cl)c(F)c2)c1` [Example 112, 3-(5-tert-Butyltetrazol-1-yl)-5-(4-chloro-3-fluorophenyl)-N-(2-cyclopropylpropan-2-yl)-benzamide] displayed a melting point of 106.5 °C. Besides, the Kb on human EAAT3 worked out at 530 nM.
On the same counts, the results for `Cc1nnnn1-c1cc(C(=O)NC(C)(C)C2CC2)cc(-c2ccc(Cl)cc2)c1` [Example 83, 3-(4-Chlorophenyl)-N-(2-cyclopropylpropan-2-yl)-5-(5-methyltetrazol-1-yl)-benzamide] are 85 °C and 180 nM.
On the same counts, the results for `CC(C)(C#N)NC(=O)c1cc(-c2ccc(Cl)c(F)c2)cc(-n2nnnc2C(C)(C)C)c1` [Example 121, 3-(5-tert-Butyltetrazol-1-yl)-5-(4-chloro-3-fluorophenyl)-N-(2-cyanopropan-2-yl)-benzamide] are 261.5 °C and 210 nM.
`CC(C)(NC(=O)c1cc(-c2ccc(Cl)cc2)cc(-n2nnnc2C2CC2)c1)C1CC1` [Example 81, 3-(4-Chlorophenyl)-N-(2-cyclopropylpropan-2-yl)-5-(5-cyclopropyl-tetrazol-1-yl)-benzamide] showed a melting point of 95 °C. Besides, at human EAAT3, the Kb was 210 nM.
`Cc1cc(-c2cc(C(=O)NC(C)(C)C)cc(-n3nnnc3C(C)(C)C)c2)ccc1F` [Example 103, N-tert-Butyl-3-(5-tert-butyltetrazol-1-yl)-5-(4-fluoro-3-methylphenyl)-benzamide] showed a melting point of 190.5 °C. At human EAAT3, this compound gave a Kb of 260 nM.
Taken in the same sequence, the figures for `Cc1nnnn1-c1cc(C(=O)NC(C)(C)C(F)(F)F)cc(-c2ccc(Cl)cc2)c1` [Example 70, 3-(4-Chlorophenyl)-5-(5-methyltetrazol-1-yl)-N-(1,1,1-trifluoro-2-methylpropan-2-yl)-benzamide] were 96 °C and 230 nM.
In turn, `CCC(C)(C)NC(=O)c1cc(-c2ccc(F)cc2)cc(-n2cnnn2)c1` [Example 1, 3-(4-Fluorophenyl)-N-(2-methylbutan-2-yl)-5-(tetrazol-1-yl)-benzamide] returned a melting point of 200 °C. This compound came in with a Kb on human EAAT3 of 145 nM.
